# Assay results: US7772197B2, “1,3,5-triazines for treatment of viral diseases” (1,3,5-Triazines for Treatment of Viral Diseases, priority 2002, dated 2010)
# pEC50: −log10 of the molar value.
# Assays:
# HIV-1 LAI-M184V = test: Sensitivity of NRTI-resistant HIV strain M184V, MT-2 cells; assay type: cell-based; conditions: Human immunodeficiency virus 1, MT2
# Experimental: (§1) 0.1 ml of a 3×10^5 cells/ml MT-2 cell suspension were seeded in 96-well plates at 3×10^4 cells/well. The compounds to be assayed were diluted in a separate 96-well at ten times (10×) the concentration needed for the screen. 22 μl of the 10× compounds was then added to the wells in triplicate except for six control wells, containing uninfected MT-2 cells alone (3 wells) and untreated HIV-infected MT-2 cells (3 wells). This was followed by the addition of HIV-1 at an MOI of 0.01, except for the three wells serving as the uninfected control. 0.1 ml of cRPMI was added to the uninfected well instead of virus. After the addition of virus, the 96-well plate was centrifuged at 1,200×g for two hours to enhance the adsorption of the virus by the MT-2 cells (see, e.g., O'Doherty, J. Virol. 74:10074-10080 (2000)). After the centrifugation step, the 96-well plate was then incubated in a 37° C. incubator containing 5% CO2 for three days. At the end of this time period the virus and cells were mixed by gentle pipetting followed by a 1 minute spin at 600×g to pellet the cells. The supernatant of each well was then serially diluted 1,000-fold into new 96-well plates to serve as inoculum for the next passage and assayed by ELISA for the amount of p24 produced. The next passage was performed as described above, except that the virus used to infect the cells was derived from the 1,000-fold dilution plate.
# (§2) To determine if there is resistance of HIV NRTI resistant strains to mutagenic nucleoside analogues, NRTI resistant strains were grown in the presence of 5-aza-dC to determine whether the EC50 for 5-aza-dC is different from the WT strain (HIV-1 LAI). […] Growth of HIV NRTI resistant strains in the presence of the appropriate concentration of NRTI was used as a positive control.
# Three HIV NRTI resistant strains (HIV-1 LAI-M184V, HIV-1 RTMDR1, with 74V, 41L, 106A and 215Y mutations, and HIV-1 RTMC, with 67N, 70R, 215F and 219Q mutations) were used to test the effectiveness of 5-aza-dC. […] Mutations include: M41L, E44D, A62V, K65R, D67N, T69DN, T69S_SS, K70R, L74V, V75I, F77L, Y115F, F116Y, V118I, Q151M, M184V, L210W, T215F and K219QE.
# The effectiveness of DHAdC was tested against wild-type HIV strains and NRTI resistant HIV strains as described in Example 2. The following strains were tested: HIV-1 LAI, wild-type; HIV-I LAI-M184V-M184V mutation with resistance to lamivudine (3TC); HIV-1 RTMDR1-74V, 41L, 106A and 215Y mutations with resistance to zidovudine, didanosine, nevirapine and other non-nucleoside reverse transcriptase inhibitors; and HIV-1 RTMC-67N, 70R, 215F and 219Q with resistance to zidovudine.
# [1] = tested on: HIV-1 RTMDR1, with 74V, 41L, 106A and 215Y mutations; test: Sensitivity of NRTI-resistant HIV strain RTMDR1, MT-2 cells; assay type: cell-based; conditions: Human immunodeficiency virus 1, MT2
# Experimental: as §1, §2
# Three HIV NRTI resistant strains (HIV-1 LAI-M184V, HIV-1 RTMDR1, with 74V, 41L, 106A and 215Y mutations, and HIV-1 RTMC, with 67N, 70R, 215F and 219Q mutations) were used to test the effectiveness of 5-aza-dC. […]
# [2] = tested on: reverse transcriptase of HIV NL4-3; test: DHAdC viral mutagenicity, sense strand of RT fragment; assay type: cell-based; conditions: 50 μM
# Experimental: The viral genomic DNA from cells treated with the deoxyribonucleoside analog 5-aza-dC (30 μM) was purified using a Qiagen DNeasy® Kit. 1 μg of genomic DNA was used to amplify a 1 kb region of the HIV-1 RT proviral DNA by PCR. The PCR product was then cloned into a TOPO® cloning vector. A Millipore Miniprep Kit was used to purify plasmid containing proviral inserts. About 45 positive clones were sequenced in both directions by a Beckman Coulter CEQ 8000. The sequencing results were analyzed and assembled using the DNASTAR Stagman program. Each mutated base was counted and the mutation rate was calculated over the total number of sequenced nucleotides.
# Assessment of DHAdC viral mutagenicity was carried out as described above for 5-aza-dC. Mutagenesis of the sense strand of a 0.9 kb fragment of reverse transcriptase of HIV NL4-3 was determined after a single passage in SN1212 (50 μM) and compared to an untreated control.
# HIV = HIV infected SCID-Hu mice; assay type: in vivo
# Experimental: After completion of this toxicology experiment, SN1212 was tested in HIV infected SCID-Hu mice. […] The discordance between viral infectivity and conventional surrogate markers of viral load, such as p24 or HIV RNA, is not surprising, as it has also been observed in vitro, and reflects the increased proportion of non-infectious viral particles in the presence of SN1212. It is also interesting to note that, of the treated groups, the immunologic profile of the SN1212 groups most closely resemble that of the uninfected group. This is compatible with the finding that infection with less “fit” viruses provides a relative clinical benefit by preserving cellular immunity.
smiles,measurement,setting,value
"NC1=NC(=O)N([C@H]2C[C@H](O)[C@@H](CO)O2)CN1 [DHAdC, 1-(2-Deoxy-β-D-ribofuranosyl)-4-amino-1,2,5,6-tetrahydro-1,3,5-triazin-2-one]",pEC50,HIV-1 LAI-M184V,5.22
same,pEC50,[1],5.22
same,"C⇄T transitions, fold enhancement",[2],4.6 fold
same,"mutation rate in HIV RT, fold higher than control",[2],1.4 fold
same,A→C C→A mutations,[2]; number of mutations,1
same,A→T T→A mutations,[2]; number of mutations,1
same,G→A A→G mutations,[2]; number of mutations,17
same,G→C C→G mutations,[2]; number of mutations,3
same,G→T T→G mutations,[2]; number of mutations,3
same,T→C C→T mutations,[2]; number of mutations,12
same,mutation rate %,[2]; single passage,0.015%
same,mutation rate in HIV RT,"[2]; treated, control 0.0011",0.0015
same,CD4+,HIV; 10 mg/kg/day,13%
same,CD4+ CD8+,HIV; 10 mg/kg/day,70%
same,CD8+,HIV; 10 mg/kg/day,9.5%
same,HIV-1 RNA,HIV; 10 mg/kg/day,5.3 log copies/10^6 cells
same,p24,HIV; 10 mg/kg/day,510 pg/10^6 cells
same,Viral liter,"HIV; 10 mg/kg/day, ** p < 0.05",15.2** viruses/10^6 cells
same,CD4+,HIV; 100 mg/kg/day,10%
same,CD4+ CD8+,HIV; 100 mg/kg/day,63%
same,CD8+,HIV; 100 mg/kg/day,11%
same,HIV-1 RNA,HIV; 100 mg/kg/day,5.1 log copies/10^6 cells
same,Viral liter,HIV; 100 mg/kg/day,24.9 viruses/10^6 cells
same,p24,HIV; 100 mg/kg/day,570 pg/10^6 cells
